Reference: patent US20080075784A1, “Taste Making Formulation Comprising The Drug In A Dissolution-Retarded Form And/Or Cyclodextrin In A Dissolution-Enhanced Form” (Pfizer Inc., priority 2004, published 2008)

Experiment: β-cyclodextrin dissolution rate in deionized water by refractive index
Format: physicochemical
Details: for β-Cyclodextrin Dissolved (%): 350 mg in 50 mL deionized water; for amount of dissolved cyclodextrin at one minute relative to the 156 μm cyclodextrin: one minute following administration
Experimental: In this example, the amount of dissolved cyclodextrin provided by several different β-cyclodextrin samples with varying ranges of particle size was determined. Samples of β-cyclodextrin with average particle sizes ranging from 116 μm to 249 μm were obtained from Roquette America of Keokuk, Iowa. In addition, a β-cyclodextrin sample with an average particle size range of about 57 μm was prepared by first dissolving the 249-μm commercially available sample in water and then lyophilizing the solution to form a fine powder. Volume weighted mean particle diameter in microns for each β-cyclodextrin sample was determined using a Horiba particle sizer.
The dissolution rates of these samples were determined as follows. A 350 mg sample of β-cyclodextrin of a given particle size was placed into 50 mL of deionized water, and the refractive index was measured at the time points noted in Table 2. Refractive index measurements were compared to a calibration curve of standards with known concentration, and the concentration of dissolved β-cyclodextrin versus time was determined.

| amount of dissolved cyclodextrin provided by crystalline cyclodextrin (one minute after administration) | β-Cyclodextrin Dissolved (%) (time 0 min) | β-Cyclodextrin Dissolved (%) (time 1 min) | β-Cyclodextrin Dissolved (%) (time 2 min) | β-Cyclodextrin Dissolved (%) (time 3 min) | β-Cyclodextrin Dissolved (%) (time 4 min) | β-Cyclodextrin Dissolved (%) (time 5 min) | amount of dissolved cyclodextrin at one minute relative to the 156 μm cyclodextrin | cyclodextrin dissolved after one minute (one minute, value taken from Table 3) | Structure (SMILES) |
| --- | --- | --- | --- | --- | --- | --- | --- | --- | --- |
| about 41% | 0% | 41% | 81% | 96% | 92% | 95% |  |  | OC[C@H]1O[C@@H]2O[C@H]3[C@H](O)[C@@H](O)[C@@H](O[C@H]4[C@H](O)[C@@H](O)[C@@H](O[C@H]5[C@H](O)[C@@H](O)[C@@H](O[C@H]6[C@H](O)[C@@H](O)[C@@H](O[C@H]7[C@H](O)[C@@H](O)[C@@H](O[C@H]8[C@H](O)[C@@H](O)[C@@H](O[C@H]1[C@H](O)[C@H]2O)O[C@@H]8CO)O[C@@H]7CO)O[C@@H]6CO)O[C@@H]5CO)O[C@@H]4CO)O[C@@H]3CO [156 μm, β-cyclodextrin] |
|  | 0% | 102% | 102% | 97% | 99% | 100% | about 2.4 fold |  | OC[C@H]1O[C@@H]2O[C@H]3[C@H](O)[C@@H](O)[C@@H](O[C@H]4[C@H](O)[C@@H](O)[C@@H](O[C@H]5[C@H](O)[C@@H](O)[C@@H](O[C@H]6[C@H](O)[C@@H](O)[C@@H](O[C@H]7[C@H](O)[C@@H](O)[C@@H](O[C@H]8[C@H](O)[C@@H](O)[C@@H](O[C@H]1[C@H](O)[C@H]2O)O[C@@H]8CO)O[C@@H]7CO)O[C@@H]6CO)O[C@@H]5CO)O[C@@H]4CO)O[C@@H]3CO [57 μm, β-cyclodextrin] |
|  | 0% | 45% | 52% | 64% | 64% | 71% |  |  | OC[C@H]1O[C@@H]2O[C@H]3[C@H](O)[C@@H](O)[C@@H](O[C@H]4[C@H](O)[C@@H](O)[C@@H](O[C@H]5[C@H](O)[C@@H](O)[C@@H](O[C@H]6[C@H](O)[C@@H](O)[C@@H](O[C@H]7[C@H](O)[C@@H](O)[C@@H](O[C@H]8[C@H](O)[C@@H](O)[C@@H](O[C@H]1[C@H](O)[C@H]2O)O[C@@H]8CO)O[C@@H]7CO)O[C@@H]6CO)O[C@@H]5CO)O[C@@H]4CO)O[C@@H]3CO [183 μm, β-cyclodextrin] |
|  | 0% | 20% | 26% | 42% | 54% | 67% |  | 20 wt % | OC[C@H]1O[C@@H]2O[C@H]3[C@H](O)[C@@H](O)[C@@H](O[C@H]4[C@H](O)[C@@H](O)[C@@H](O[C@H]5[C@H](O)[C@@H](O)[C@@H](O[C@H]6[C@H](O)[C@@H](O)[C@@H](O[C@H]7[C@H](O)[C@@H](O)[C@@H](O[C@H]8[C@H](O)[C@@H](O)[C@@H](O[C@H]1[C@H](O)[C@H]2O)O[C@@H]8CO)O[C@@H]7CO)O[C@@H]6CO)O[C@@H]5CO)O[C@@H]4CO)O[C@@H]3CO [249 μm, β-cyclodextrin] |
|  | 0% | 58% | 76% | 84% | 88% |  | about 1.4 fold |  | OC[C@H]1O[C@@H]2O[C@H]3[C@H](O)[C@@H](O)[C@@H](O[C@H]4[C@H](O)[C@@H](O)[C@@H](O[C@H]5[C@H](O)[C@@H](O)[C@@H](O[C@H]6[C@H](O)[C@@H](O)[C@@H](O[C@H]7[C@H](O)[C@@H](O)[C@@H](O[C@H]8[C@H](O)[C@@H](O)[C@@H](O[C@H]1[C@H](O)[C@H]2O)O[C@@H]8CO)O[C@@H]7CO)O[C@@H]6CO)O[C@@H]5CO)O[C@@H]4CO)O[C@@H]3CO [116 μm, β-cyclodextrin] |
